# According to PubChem BioAssay AID1259407 (Chemical Carcinogenesis Research Information System (CCRIS), 2018):
# Activity calls are given as the source filed them. How the calls were made is not given here.
# System: CCRIS mutagenicity, Ames/micronucleus/aberration tests
# Experiment: CCRIS mutagenicity studies
# Conditions: Test System: AMES SALMONELLA TYPHIMURIUM
# [1] = Strain/Indicator: TA100, Metabolic Activation: RAT, LIVER, S-9, PHENOBARBITAL AND 5,6-BENZOFLAVONE, Method: PREINCUBATION
# [2] = Strain/Indicator: TA97, Metabolic Activation: NONE, Method: STANDARD PLATE
# [3] = Strain/Indicator: TA97, Metabolic Activation: RAT, LIVER, S-9, PHENOBARBITAL, Method: STANDARD PLATE
# [4] = Strain/Indicator: TA98, Metabolic Activation: NONE, Method: STANDARD PLATE
# [5] = Strain/Indicator: TA98, Metabolic Activation: RAT, LIVER, S-9, PHENOBARBITAL, Method: STANDARD PLATE
# [6] = Strain/Indicator: TA100, Metabolic Activation: NONE, Method: STANDARD PLATE
# [7] = Strain/Indicator: TA100, Metabolic Activation: RAT, LIVER, S-9, PHENOBARBITAL, Method: STANDARD PLATE
smiles,measurement,setting,value
Fc1cccc2ccc3ncccc3c12,mutagenic call,[1],active; positive
O=C(O)CC(O)C(=O)O (stereo not drawn),mutagenic call,"Strain/Indicator: TA97, Metabolic Activation: NONE, Method: PREINCUBATION",inactive; negative
same,mutagenic call,[2],inactive; negative
same,mutagenic call,"Strain/Indicator: TA97, Metabolic Activation: RAT, LIVER, S-9, AROCLOR 1254, Method: PREINCUBATION",inactive; negative
same,mutagenic call,[3],inactive; negative
same,mutagenic call,[4],inactive; negative
same,mutagenic call,[5],inactive; negative
same,mutagenic call,[6],inactive; negative
same,mutagenic call,[7],inactive; negative
same,mutagenic call,"Strain/Indicator: TA102, Metabolic Activation: NONE, Method: PREINCUBATION",inactive; negative
same,mutagenic call,"Strain/Indicator: TA102, Metabolic Activation: RAT, LIVER, S-9, AROCLOR 1254, Method: PREINCUBATION",inactive; negative
same,mutagenic call,"Strain/Indicator: TA104, Metabolic Activation: NONE, Method: STANDARD PLATE",inactive; negative
same,mutagenic call,"Strain/Indicator: TA104, Metabolic Activation: RAT, LIVER, S-9, PHENOBARBITAL, Method: STANDARD PLATE",inactive; negative
C[n+]1cccc(-c2ccc[n+](C)c2)c1,mutagenic call,[3],inactive; negative
same,mutagenic call,[5],inactive; negative
same,mutagenic call,[7],active; positive
same,mutagenic call,"Strain/Indicator: TA1535, Metabolic Activation: RAT, LIVER, S-9, PHENOBARBITAL, Method: STANDARD PLATE",inactive; negative
same,mutagenic call,"Strain/Indicator: TA1537, Metabolic Activation: RAT, LIVER, S-9, PHENOBARBITAL, Method: STANDARD PLATE",inactive; negative
same,mutagenic call,"Strain/Indicator: TA1538, Metabolic Activation: RAT, LIVER, S-9, PHENOBARBITAL, Method: STANDARD PLATE",inactive; negative
Fc1cnc2cccc(F)c2c1,mutagenic call,[1],inactive; negative
O=[N+]([O-])c1ccc2c(c1)c([N+](=O)[O-])cc1ccccc12,mutagenic call,"Strain/Indicator: TA98(1,8-DNP6), Metabolic Activation: NONE, Method: STANDARD PLATE",active; positive
same,mutagenic call,"Strain/Indicator: TA98(NR), Metabolic Activation: NONE, Method: STANDARD PLATE",active; positive
same,mutagenic call,[4],active; positive
same,mutagenic call,[6],active; positive
same,mutagenic call,"Strain/Indicator: YG1021, Metabolic Activation: NONE, Method: STANDARD PLATE",active; positive
same,mutagenic call,"Strain/Indicator: YG1024, Metabolic Activation: NONE, Method: STANDARD PLATE",active; positive
same,mutagenic call,"Strain/Indicator: YG1026, Metabolic Activation: NONE, Method: STANDARD PLATE",active; positive
same,mutagenic call,"Strain/Indicator: YG1029, Metabolic Activation: NONE, Method: STANDARD PLATE",active; positive
CCNc1nc(N)nc(Cl)n1,mutagenic call,[2],inactive; negative
same,mutagenic call,[4],inactive; negative
same,mutagenic call,[6],inactive; negative
CCCCOc1cc(C)ccc1C(=O)NOC(C)=O,mutagenic call,[6],active; positive
same,mutagenic call,"Strain/Indicator: TA100, Metabolic Activation: RAT, S-9, AROCLOR, Method: STANDARD PLATE",active; positive
